Values quoted from earlier work as cited in US20170209405A1, “APPLICATION OF COMPOUND MIXTURES TO CONTROL OXIDATION” (priority 2016, published 2017).

Legend:
[1] = adults
[2] = tested on: sperm DNA damage (DNA-strand breaks); settings: men aged 45 and up, highest dosages of vitamin C (up to 700 mg daily)

SMILES	dose above which it may be toxic to the liver [1]	less DNA damage than those who took less of the supplements [2]
NC(=O)c1cccnc1 [nicotinamide]	exceeding 3 g/day	
O=C1O[C@H]([C@@H](O)CO)C(O)=C1O [vitamin C]		20%
